The values below come from patent US5354862A, “Preparation and the use of halopropargylated cyclic quaternary ammonium compounds as antimicrobial agents” (Rohm and Haas Company, priority 1993, dated 1994).

What all share (experiment): Broth two-fold serial dilution MIC test
Test [1] has as its system Pseudomonas aeruginosa. The format is cell-based, Pseudomonas aeruginosa (ATCC 15442). The following applies: Psae. An excerpt: (§1) A minimum inhibitory concentration (MIC) value is obtained using a broth, two-fold serial dilution test performed as follows: A stock solution or dispersion of the test compound, typically at a concentration of 1%, is made in a 5:3:2 solvent solution of acetone. methanol, and water. A volume of the stock solution is dispensed into culture media to give an initial starting test concentration of 500 ppm compound.
(§2) When the test is ready to be done, each vessel in the dilution series, except the first vessel, contains an equal volume of compound free broth. The first vessel contains twice the volume of broth with the starting concentration of test compound. One half of the broth from the first vessel is transferred to the second vessel- After being mixed, one half the resulting volume is removed from the second vessel and transferred to the third vessel. The entire cycle is repeated sufficiently to give a series of concentrations amounting to 500, 250, 125, 63, 31, 16, 8, and 4, 2, 1, 0.5, 0.25 ppm respectively.
(§3) Each vessel is then inoculated with a cell suspension of the appropriate test organism. Bacteria are grown in broth, fungi on agar slants for a time and at a temperature appropriate to the species being tested, and algae are a mixture of green algae and blue-green bacteria grown in a nutrient media. At the end of the growth period, in the case of bacteria, the broth is vortexed to disperse the cells.
(§4) In the case of fungi, the spores are harvested by pipetting water onto the slant and dislodging the spores with a sterile loop. The cell/spore suspension is standardized by controlling incubation time, temperature, and the volume of the diluent. The suspension is then used to inoculate the vessels containing the broth compound.
(§5) The vessels are then incubated at the appropriate temperature. After the incubation, the vessels are examined for growth/no growth. The minimum inhibitory concentration (MIC) is defined as the lowest concentration of compound that results in complete inhibition of growth of the test organism.
1. Pseudomonas aeruginosa

The subject of test [2] is Escherichia coli. It is filed as cell-based, Escherichia coli (ATCC 11229). The settings on record: Ecol.
Description: as §1, §2, §3, §4, §5

For test [3], the system named is Staphylococcus aureus. The format is cell-based, Staphylococcus aureus (ATCC 6538). The settings on record: Saur.
Description: as §1, §2, §3, §4, §5
2. Staphylococcus aureus

Test [4] deals with Aspergillus niger. It is filed as cell-based, Aspergillus niger (ATCC 6275). The following applies: Anig, TSB media.
Description: as §1, §2, §3, §4, §5
4. Aspergillus niger 6275 Anig

[5] abbreviates: Pseudomonas aeruginosa, Table 2, M9G media, read-out: MIC.
[6] abbreviates: Pseudomonas aeruginosa, Table 2, TSB media, read-out: MIC.
The mark [7] stands for this setting: Escherichia coli, Table 2, TSB media, read-out: MIC.
Where [8] appears, read: Staphylococcus aureus, Table 2, M9G media, read-out: MIC.
Where [9] appears, read: Staphylococcus aureus, Table 2, TSB media, read-out: MIC.
[10] abbreviates: Aspergillus niger, Table 2, read-out: MIC.
Where [11] appears, read: Escherichia coli, Table 2, M9G media, read-out: MIC.

Read-outs that look alike come from different tables or passages of the source.

With `OCC[N+]1(CC#CI)CCCC1` [Compound 1, 1-(2-hydroxyethyl)-1-(3-iodopropargyl)-pyrrolidinium 4-methylbenzenesulfonate], the MIC was above 250 µg/mL in test [1] (setting [5]); 125 µg/mL in test [1] (setting [6]); above 250 µg/mL in test [2] (setting [7]); 16 µg/mL in test [3] (setting [8]); 32 µg/mL in test [3] (setting [9]); above 250 µg/mL in test [4] (setting [10]).

Regarding `OCCCCCCCCCCCC[N+]1(CC#CI)CCCC1` [Compound 2, 1-(12-hydroxydodecyl)-l-(3-iodopropargyl)-pyrrolidinium 4-methylbenzenesulfonate], the MIC in test [1] (setting [5]) was above 250 µg/mL; in test [1] (setting [6]) it was above 250 µg/mL; in test [2] (setting [7]) it was 250 µg/mL; in test [3] (setting [8]), 32 µg/mL; in test [3] (setting [9]) it was 32 µg/mL; in test [4] (setting [10]) it was 32 µg/mL.

`OCCCCCCCC[N+]1(CC#CI)CCCC1` [Compound 3, 1-(8-hydroxyoctyl)-1-(3-iodopropargyl)-pyrrolidinium 4-methylbenzenesulfonate]: the MIC was above 500 µg/mL in test [1] (setting [5]); above 500 µg/mL in test [1] (setting [6]); above 500 µg/mL in test [2] (setting [7]); 500 µg/mL in test [3] (setting [8]); above 500 µg/mL in test [3] (setting [9]); above 500 µg/mL in test [4] (setting [10]).

Take `OCCCCCCC[N+]1(CC#CI)CCCC1` [Compound 4, 1-(7-hydroxyheptyl)-1-(3-iodopropargyl)-pyrrolidinium 4-methybenzenesulfonate]: the MIC in test [1] (setting [5]) is above 500 µg/mL; in test [1] (setting [6]) it was above 500 µg/mL; in test [2] (setting [11]) it was above 500 µg/mL; in test [2] (setting [7]), 500 µg/mL; in test [3] (setting [8]) it was 500 µg/mL; in test [3] (setting [9]) it was 500 µg/mL. For the same molecule, the MIC in test [4] (setting [10]) was 250 µg/mL.

With `OCCCCCCCCC[N+]1(CC#CI)CCCC1` [Compound 5, 1-(9-hydroxynonyl)-1-(3-iodopropargyl)-pyrrolidinium 4-methylbenzenesulfonate], the MIC in test [1] (setting [5]) is above 500 µg/mL; in test [1] (setting [6]) it was above 500 µg/mL; in test [2] (setting [11]), above 500 µg/mL; in test [2] (setting [7]), above 500 µg/mL; in test [3] (setting [8]), 63 µg/mL; in test [3] (setting [9]), 63 µg/mL. Besides, the MIC in test [4] (setting [10]) worked out at 250 µg/mL.

For the molecule `CCCCCCCCCCCCCC[N+]1(CC#CI)CCCC1` [Compound 6, 1-Tetradecyl-1-(3-Iodopropargyl)-Pyrrolidinium 4-Methylbenzenesulfonate], the MIC worked out at 4 µg/mL in test [1] (Pseudomonas aeruginosa, Table 3 comparison, M9G media, read-out: MIC); 4 µg/mL in test [1] (Pseudomonas aeruginosa, Table 3 comparison, TSB media, read-out: MIC); 4 ppm in test [1] (Table 2, M9G media); 4 ppm in test [1] (Table 2, TSB media); 4 ppm in test [2] (Table 2, M9G media); 4 ppm in test [2] (Table 2, TSB media). Also, the MIC in test [2] (Table 3 comparison, M9G media) is 4 ppm; in test [2] (Table 3 comparison, TSB media), 4 ppm; in test [3] (setting [8]), 0.5 µg/mL; in test [3] (setting [9]), 0.5 µg/mL; in test [3] (Staphylococcus aureus, Table 3 comparison, M9G media, read-out: MIC) it was 0.5 µg/mL; in test [3] (Staphylococcus aureus, Table 3 comparison, TSB media, read-out: MIC) it was 0.5 µg/mL. For the same molecule, the MIC in test [4] (Aspergillus niger, Table 3 comparison, read-out: MIC) was below 0.25 µg/mL; in test [4] (Table 2) it was below 0.25 ppm.

Regarding `CCCCCCCCCCCCCCCC[N+]1(CC#CI)CCCC1` [Compound 7, 1-hexadecyl-1-(3-iodopropargyl)-pyrrolidinium 4-methylbenzenesulfonate], the MIC in test [1] (Table 2, M9G media) is 4 ppm; in test [1] (Table 2, TSB media), 8 ppm; in test [2] (setting [11]), 4 µg/mL; in test [2] (Table 2, TSB media) it was 2 ppm; in test [3] (setting [8]), below 0.25 µg/mL; in test [3] (setting [9]), below 0.25 µg/mL. Besides, in test [4] (Table 2), the MIC was 1 ppm.

With `CCCCCCCCCCCCC[N+]1(CC#CI)CCCC1` [Compound 8, 1-tridecyl-1-(3-iodopropargyl)-pyrrolidinium 4-methylbenzenesulfonate], the MIC in test [1] (setting [5]) stood at 16 µg/mL; in test [1] (Table 2, TSB media), 16 ppm; in test [2] (setting [11]), 2 µg/mL; in test [2] (Table 2, TSB media), 4 ppm; in test [3] (setting [8]) it was 0.5 µg/mL; in test [3] (Table 2, TSB media), 1 ppm. Moreover, in test [4] (setting [10]), the MIC stood at 1 µg/mL.

In the case of `CCCC[N+]1(CC#CI)CCCC1` [Compound 9, 1-butyl-1-(3-iodopropargyl)-pyrrolidinium 4-methylbenzenesulfonate], the MIC in test [1] (setting [5]) is 500 µg/mL; in test [1] (setting [6]), above 500 µg/mL; in test [2] (Table 2, M9G media), 500 ppm; in test [2] (Table 2, TSB media), 250 ppm; in test [3] (setting [8]) it was 250 µg/mL; in test [3] (setting [9]) it was 250 µg/mL. In addition, the MIC in test [4] (setting [10]) was found to be 500 µg/mL.

Consider `CCCCCCCCCCCCCCC[N+]1(CC#CI)CCCC1` [Compound 10, 1-pentadecyl-1-(3-iodopropargyl)-pyrrolidinium 4-methylbenzenesulfonate], for which the MIC was 8 ppm in test [1] (Table 2, M9G media); 250 ppm in test [1] (Table 2, TSB media); 4 ppm in test [2] (Table 2, M9G media); 32 ppm in test [2] (Table 2, TSB media); below 0.25 µg/mL in test [3] (setting [8]); 1 ppm in test [3] (Table 2, TSB media). Besides, in test [4] (setting [10]), the MIC was below 0.25 µg/mL.

Consider `CCCCCCCCCC[N+]1(CC#CI)CCCC1` [Compound 11], for which the MIC in test [1] (setting [5]) turned out to be 250 µg/mL; in test [1] (setting [6]), 500 µg/mL; in test [2] (Table 2, M9G media), 16 ppm; in test [2] (Table 2, TSB media), 32 ppm; in test [3] (Table 2, M9G media) it was 2 ppm; in test [3] (Table 2, TSB media) it was 16 ppm. Moreover, the MIC in test [4] (setting [10]) is 4 µg/mL.

On to `CCCCCCCC[N+]1(CC#CI)CCCC1` [Compound 12, 1-octyl-1-(3-iodopropargyl)-pyrrolidinium 4-methylbenzenesulfonate], for which the MIC was 500 µg/mL in test [1] (setting [5]); above 500 µg/mL in test [1] (setting [6]); 32 µg/mL in test [2] (setting [11]); 63 µg/mL in test [2] (setting [7]); 2 µg/mL in test [3] (setting [8]); 16 µg/mL in test [3] (setting [9]). Moreover, in test [4] (setting [10]), the MIC amounted to 16 µg/mL.

For `CCCCCCCCCCCC[N+]1(CC#CI)CCCC1` [Compound 13, 1-dodecyl-1-(3-iodopropargyl)-pyrrolidinium 4-methylbenzenesulfonate], the MIC in test [1] (setting [5]) was found to be 32 µg/mL; in test [1] (Table 2, TSB media), 250 ppm; in test [2] (Table 2, M9G media), 32 ppm; in test [2] (Table 2, TSB media), 32 ppm; in test [3] (Table 2, M9G media) it was 1 ppm; in test [3] (Table 2, TSB media), 16 ppm. Also, the MIC in test [4] (Table 2) is reported as 16 ppm.

Regarding `CCCCCC[N+]1(CC#CI)CCCC1` [Compound 14, 1-hexyl-1-(3-iodopropargyl)-pyrrolidinium 4-methylbenzenesulfonate], the MIC in test [1] (setting [5]) was determined as 500 µg/mL; in test [1] (setting [6]), 500 µg/mL; in test [2] (setting [11]), 250 µg/mL; in test [2] (setting [7]), 125 µg/mL; in test [3] (setting [8]) it was 16 µg/mL; in test [3] (setting [9]) it was 16 µg/mL. The MIC in test [4] (setting [10]) turned out to be 250 µg/mL.

With `CCCCCCCCCCC[N+]1(CC#CI)CCCC1` [Compound 15, 1-undecyl-1-(3-iodopropargyl)-pyrrolidinium 4-methylbenzenesulfonate], the MIC in test [1] (setting [5]) came out at 32 µg/mL; in test [1] (setting [6]) it was 32 µg/mL; in test [2] (setting [11]), 1 µg/mL; in test [2] (setting [7]), 2 µg/mL; in test [3] (setting [8]), 0.25 µg/mL; in test [3] (setting [9]), 0.25 µg/mL. The MIC in test [4] (setting [10]) was 16 µg/mL.

As for `CCCCCCCCCCCCCCCCCC[N+]1(CC#CI)CCCC1` [Compound 16, t-octadecyl-1-(3-iodopropargyl)-pyrrolidinium 4-methylbenzenesulfonate], the MIC in test [1] (setting [5]) was determined as 500 µg/mL; in test [1] (setting [6]), 500 µg/mL; in test [2] (setting [11]), 16 µg/mL; in test [2] (setting [7]), 63 µg/mL; in test [3] (setting [8]) it was 1 µg/mL; in test [3] (setting [9]), 1 µg/mL. For the same molecule, the MIC in test [4] (setting [10]) is 32 µg/mL.
